Results on 38 compounds are retold here after patent publication US20220259193A1, “KCNT1 INHIBITORS AND METHODS OF USE” (Praxis Precision Medicines, Inc., priority 2019, published 2022).

The test has as its target T1, KCNT1 (KNa1.1, Slack) (Homo sapiens, UniProt Q5JUK3).
T1 construct: expressed in transfected cells; host or cells: HEK-TREX (tetracycline-inducible HEK cell line)
T1 sequence (Q5JUK3 1-1230): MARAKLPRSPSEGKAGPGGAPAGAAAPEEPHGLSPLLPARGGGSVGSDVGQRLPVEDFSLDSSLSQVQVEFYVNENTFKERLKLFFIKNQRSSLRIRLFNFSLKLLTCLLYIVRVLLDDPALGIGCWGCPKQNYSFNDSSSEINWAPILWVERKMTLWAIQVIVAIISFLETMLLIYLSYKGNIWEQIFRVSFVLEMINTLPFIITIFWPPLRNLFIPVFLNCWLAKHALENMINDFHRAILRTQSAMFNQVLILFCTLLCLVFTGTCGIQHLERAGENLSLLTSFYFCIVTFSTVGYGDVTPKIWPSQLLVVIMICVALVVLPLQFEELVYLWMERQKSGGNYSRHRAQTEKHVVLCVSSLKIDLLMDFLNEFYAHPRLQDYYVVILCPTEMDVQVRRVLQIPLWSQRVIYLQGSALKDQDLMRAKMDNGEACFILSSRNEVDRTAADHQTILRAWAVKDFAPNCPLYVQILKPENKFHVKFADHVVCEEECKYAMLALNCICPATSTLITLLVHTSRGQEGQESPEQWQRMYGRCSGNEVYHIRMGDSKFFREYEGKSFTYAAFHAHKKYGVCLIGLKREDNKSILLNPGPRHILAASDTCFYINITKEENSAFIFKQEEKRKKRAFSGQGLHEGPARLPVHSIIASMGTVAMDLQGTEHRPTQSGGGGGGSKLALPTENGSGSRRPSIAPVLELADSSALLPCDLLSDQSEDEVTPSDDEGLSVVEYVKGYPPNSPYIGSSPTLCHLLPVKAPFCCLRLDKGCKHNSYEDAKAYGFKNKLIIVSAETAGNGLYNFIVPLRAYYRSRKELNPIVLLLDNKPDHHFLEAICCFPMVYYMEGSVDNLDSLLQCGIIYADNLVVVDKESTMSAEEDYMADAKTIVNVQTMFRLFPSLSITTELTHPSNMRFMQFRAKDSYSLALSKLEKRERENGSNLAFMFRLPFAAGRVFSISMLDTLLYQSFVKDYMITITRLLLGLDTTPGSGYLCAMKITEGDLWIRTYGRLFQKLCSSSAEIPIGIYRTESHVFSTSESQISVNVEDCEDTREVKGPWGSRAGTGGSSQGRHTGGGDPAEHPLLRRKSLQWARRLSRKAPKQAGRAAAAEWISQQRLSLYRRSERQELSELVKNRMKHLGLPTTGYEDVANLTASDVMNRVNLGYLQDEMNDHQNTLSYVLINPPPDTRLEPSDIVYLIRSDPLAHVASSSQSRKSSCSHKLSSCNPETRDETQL
Briefly: KCNT1 patch clamp assay (SyncroPatch 384PE automated patch clamp). The note with it: tetracycline inducible HEK-TREX cell line; perforated patch; step from −80 mV to 0 mV; room temperature; read-out: KCNT1-WT IC50. It is filed as cell-based. How it is done: KCNT1—Patch Clamp Assay Inhibition of KCNT1 (KNa1.1, Slack) was evaluated using a tetracycline inducible cell line (HEK-TREX). Currents were recorded using the SyncroPatch 384PE automated, patch clamp system. Pulse generation and data collection were performed with PatchController384 V1.3.0 and DataController384 V1.2.1 (Nanion Technologies). The access resistance and apparent membrane capacitance were estimated using built-in protocols. Current were recorded in perforated patch mode (10 μM escin) from a population of cells. […] The cells were allowed to recover in the cell hotel prior to experimentation. Currents were recorded at room temperature. […] The extracellular solution was used as the wash, reference and compound delivery solution. […] Escin is made at a 5 mM stock in water, aliquoted, and stored at −20° C. The compound plate was created at 2× concentrated in the extracellular solution. The compound was diluted to 1:2 when added to the recording well. The amount of DMSO in the extracellular solution was held constant at the level used for the highest tested concentration. A holding potential of −80 mV with a 100 ms step to 0 mV was used. […] The average mean current from 3 sweeps was calculated and the % inhibition of each compound was calculated. The % Inhibition as a function of the compound concentration was fit with a Hill equation to derive IC50, slope, min and max parameters.
On the technique in general: The patch-clamp technique gives a direct electrical read-out from membranes.

One may read the IC50 as the midpoint of a concentration-inhibition curve. For `CC(=O)Oc1cccc(-c2noc(C(C)NC(=O)c3cc(C(F)(F)F)nn3C)n2)c1` (racemic) [Compound 185, 3-(5-(1-(1-methyl-3-(trifluoromethyl)-1H-pyrazole-5-carboxamido)ethyl)-1,2,4-oxadiazol-3-yl)phenyl acetate], the IC50 is 1 to 20 µM.
`C[C@@H](NC(=O)c1cc(C(F)(F)F)nn1C)c1nc(-c2ccc(F)c(F)c2)no1` (single isomer, unassigned) [Compound 76]: the 50% inhibitory concentration (IC50) was at most 1 µM.
Regarding `C[C@H](NC(=O)c1cc(C(F)(F)F)nn1C)c1nc(-c2ccc(F)c(F)c2)no1` (single isomer, unassigned) [Compound 77], the IC50 was at most 1 µM.
With `COC[C@@H](NC(=O)c1cc(C(F)(F)F)nn1C)c1nc(-c2cccc(C)c2)no1` (single isomer, unassigned) [Compound 80] the figure was at most 1 µM; with `COC[C@H](NC(=O)c1cc(C(F)(F)F)nn1C)c1nc(-c2cccc(C)c2)no1` (single isomer, unassigned) [Compound 81], at most 1 µM; with `C[C@@H](NC(=O)c1cc(C(F)(F)F)nn1C(F)F)c1nc(-c2cccc(Cl)c2)no1` (single isomer, unassigned) [Compound 82], at most 1 µM.
With `C[C@H](NC(=O)c1cc(C(F)(F)F)nn1C(F)F)c1nc(-c2cccc(Cl)c2)no1` (single isomer, unassigned) [Compound 83] the figure was 1 to 20 µM; with `C[C@@H](NC(=O)c1cc(C2CC2)nn1C)c1nc(-c2cccc(F)c2)no1` (single isomer, unassigned) [Compound 93], 1 to 20 µM; with `C[C@H](NC(=O)c1cc(C2CC2)nn1C)c1nc(-c2cccc(F)c2)no1` (single isomer, unassigned) [Compound 94], at least 20 µM.
Under `Cn1nc(C2CC2)cc1C(=O)N[C@@H](c1nc(-c2cccc(F)c2)no1)C1CC1` (single isomer, unassigned) [Compound 108] stands at most 1 µM; under `Cn1nc(C2CC2)cc1C(=O)N[C@H](c1nc(-c2cccc(F)c2)no1)C1CC1` (single isomer, unassigned) [Compound 109], at most 1 µM.
Regarding `CNC(=O)C[C@@H](NC(=O)c1cc(C(F)(F)F)nn1C)c1nc(-c2cccc(F)c2)no1` (single isomer, unassigned) [Compound 114], the half-maximal inhibitory concentration (IC50) was at least 20 µM.
Take `CNC(=O)C[C@H](NC(=O)c1cc(C(F)(F)F)nn1C)c1nc(-c2cccc(F)c2)no1` (single isomer, unassigned) [Compound 115]: the IC50 was at least 20 µM.
Under `Cn1nc(C(F)(F)F)cc1C(=O)NC(CC(=O)NCCO)c1nc(-c2cccc(F)c2)no1` (single isomer, unassigned) [Compound 121] stands at least 20 µM; under `COC(=O)CC(NC(=O)c1cc(C(F)(F)F)nn1C)c1nc(-c2cccc(F)c2)no1` (single isomer, unassigned) [Compound 125, methyl 3-[3-(3-fluorophenyl)-1,2,4-oxadiazol-5-yl]-3-[[2-methyl-5-(trifluoromethyl)pyrazole-3-carbonyl]amino]propanoate], at most 1 µM.
As to `COC(=O)CC(NC(=O)c1cc(C(F)(F)F)nn1C)c1nc(-c2cccc(F)c2)no1` (single isomer, unassigned) [Compound 126, methyl 3-[3-(3-fluorophenyl)-1,2,4-oxadiazol-5-yl]-3-[[2-methyl-5-(trifluoromethyl)pyrazole-3-carbonyl]amino]propanoate], the half-inhibitory concentration (IC50) was at most 1 µM.
Under `Cn1nc(C(F)(F)F)cc1C(=O)NC(CC(N)=O)c1nc(-c2cccc(F)c2)no1` (single isomer, unassigned) [Compound 128, N-[3-amino-1-[3-(3-fluorophenyl)-1,2,4-oxadiazol-5-yl]-3-oxo-propyl]-2-methyl-5-(trifluoromethyl)pyrazole-3-carboxamide] stands at least 20 µM; under `Cn1nc(C(F)(F)F)cc1C(=O)NC(CC(N)=O)c1nc(-c2cccc(F)c2)no1` (single isomer, unassigned) [Compound 129, N-[3-amino-1-[3-(3-fluorophenyl)-1,2,4-oxadiazol-5-yl]-3-oxo-propyl]-2-methyl-5-(trifluoromethyl)pyrazole-3-carboxamide], at least 20 µM.
With `CN(C)C(=O)C[C@@H](NC(=O)c1cc(C(F)(F)F)nn1C)c1nc(-c2cccc(F)c2)no1` (single isomer, unassigned) [Compound 135] the figure was 1 to 20 µM; with `CN(C)C(=O)C[C@H](NC(=O)c1cc(C(F)(F)F)nn1C)c1nc(-c2cccc(F)c2)no1` (single isomer, unassigned) [Compound 136], 1 to 20 µM; with `Cn1nc(C(F)(F)F)cc1C(=O)N[C@H](CCS(C)(=O)=O)c1nc(-c2cccc(F)c2)no1` (single isomer, unassigned) [Compound 143], at least 20 µM.
Regarding `Cn1nc(C(F)(F)F)cc1C(=O)N[C@@H](CCS(C)(=O)=O)c1nc(-c2cccc(F)c2)no1` (single isomer, unassigned) [Compound 144], the IC50 is 1 to 20 µM.
On to `C[C@H](NC(=O)c1cc(C(F)(F)F)nn1C)c1nc(-c2ccnc(N3CCCCC3)c2)no1` (single isomer, unassigned) [Compound 209], for which the concentration for half-maximal inhibition (IC50) was at most 1 µM.
Under `CC(NC(=O)c1cc(C(F)(F)F)nn1C)c1nc(-c2ccnc(N3CCCCC3)c2)no1` (single isomer, unassigned) [Compound 210] stands at most 1 µM.
With `C[C@H](NC(=O)c1cc(C(F)(F)F)nn1C)c1nc(-c2ccnc(C3CCC3)c2)no1` (single isomer, unassigned) [Compound 278], the IC50 is at most 1 µM.
With `CC(NC(=O)c1cc(C(F)(F)F)nn1C)c1nc(-c2ccnc(C3CCC3)c2)no1` (single isomer, unassigned) [Compound 279] the figure was at most 1 µM; with `CC(NC(=O)c1cc(C2CC2)nn1C)c1nc(-c2cccc(F)c2)no1` (centres unmarked) [Compound 5], at most 1 µM; with `CC(NC(=O)c1cc(C2CC2)nn1C)c1nc(-c2cccc(Cl)c2)no1` (centres unmarked) [Compound 6], at most 1 µM.
On to `CC(NC(=O)c1cc(C2CC2)nn1C)c1nc(-c2c(F)cccc2F)no1` (centres unmarked) [Compound 7], for which the half-inhibitory concentration (IC50) is at least 20 µM.
With `CC(NC(=O)c1cc(C2CC2)nn1C)c1nc(-c2ccc(F)cc2)no1` (centres unmarked) [Compound 8] the figure was 1 to 20 µM; with `CC(NC(=O)c1cc(C2CC2)nn1C)c1nc(-c2ccc(Cl)cc2)no1` (centres unmarked) [Compound 9], at most 1 µM; with `Cc1cccc(-c2noc(C(C)NC(=O)c3cc(C(C)C)nn3C)n2)c1` (centres unmarked) [Compound 10], at most 1 µM.
Under `Cc1cccc(-c2noc(C(C)NC(=O)c3cc(C)nn3C(C)(C)C)n2)c1` (centres unmarked) [Compound 11] stands 1 to 20 µM; under `CC(NC(=O)c1cc(C2CC2)nn1C)c1nc(-c2cccc(C(F)(F)F)c2)no1` (centres unmarked) [Compound 12], at most 1 µM.
With `Cc1cccc(-c2noc(C(C)NC(=O)c3cc(C(C)(C)C)nn3C)n2)c1` (centres unmarked) [Compound 13] the figure was at most 1 µM.
`Cc1cccc(-c2noc(C(C)NC(=O)c3cc(C(F)F)nn3C)n2)c1` (centres unmarked) [Compound 21]: the half-maximal inhibitory concentration (IC50) is at most 1 µM.
With `Cc1cccc(-c2noc(C(C)NC(=O)c3cc(C)nn3C(C)C)n2)c1` (centres unmarked) [Compound 22] the figure was at most 1 µM.
With `Cc1cccc(-c2noc(C(C)NC(=O)c3cc(C)nn3C(F)F)n2)c1` (centres unmarked) [Compound 33] the figure was at most 1 µM.
